From patent US8541404B2, “Inhibitors of the human aldosterone synthase CYP11B2” (ElexoPharm GmbH, priority 2009, dated 2013)

Tests used:
[1] = molecular target: T1, human aldosterone synthase (CYP11B2) (Homo sapiens, UniProt P19099); experiment: Test for CYP11B2 inhibitors in V79 MZh11B2 cells (test system B); type: cell-based; settings: for inhibition at 0.5 µM: V79MZh11B2, Table 2, percentage inhibition, inhibitor concentration 0.5 μM, read-out: % (0.5 μM) hCYP11B2; for IC50: Table 1, V79 MZh11B2 cells, read-out: IC50 V79 11B2 hCYP11B2
T1 construct: expressed in transfected cells; host or cells: V79 MZh11B2 (V79 Chinese hamster cells)
T1 sequence (P19099 25-503): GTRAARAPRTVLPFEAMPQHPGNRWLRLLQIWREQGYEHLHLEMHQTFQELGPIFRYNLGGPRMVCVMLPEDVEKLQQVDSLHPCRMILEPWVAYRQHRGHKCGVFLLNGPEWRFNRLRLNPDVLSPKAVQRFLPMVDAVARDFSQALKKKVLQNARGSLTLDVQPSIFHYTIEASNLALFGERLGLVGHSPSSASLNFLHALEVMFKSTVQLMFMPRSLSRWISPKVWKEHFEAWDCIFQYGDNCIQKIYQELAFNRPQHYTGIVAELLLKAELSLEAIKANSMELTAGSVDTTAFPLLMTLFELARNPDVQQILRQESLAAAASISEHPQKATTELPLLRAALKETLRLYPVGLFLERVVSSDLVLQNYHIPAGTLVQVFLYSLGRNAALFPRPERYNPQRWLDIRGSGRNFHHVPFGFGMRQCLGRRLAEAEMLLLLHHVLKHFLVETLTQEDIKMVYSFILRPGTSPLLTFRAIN
Protocol: B) Test for CYP11B2 Inhibitors (V79 MZh Cells):
(§1) Maintenance of the cells: V79 MZh11B2 and V79 MZh11B1, which recombinantly express human aldosterone synthase (CYP11B2) or steroid 11-β-hydroxylase CYP11B1) and were prepared according to Denner et al. (Denner, K. et al., Pharmacogenetics 5:89-96 (1995)), were cultured in cell culture dishes of 60 or 90 mm diameter in a CO2 incubator at 37° C. and in a water-saturated atmosphere containing 5% of CO2. Both cell lines were cultured in DMEM^+, which contained 10% of FCS and the antibiotics penicillin and streptomycin (1%) for protection from bacterial contamination. The cells were passaged every 2 to 3 days following treatment with trypsin/EDTA, since the doubling […], according to cell count, was 1 to 2 days. The cells were passaged up to 12 to 15 times in order to exclude possible cell changes. If needed, freshly thawed cells were employed.
(§2) Inhibition test: V79 MZh11B2- and V79 MZh11B1 cells (8·10^5 cells per well) were grown to confluence in 24-well cell culture plates with a 1.9 cm^2 culture area per hole (Nunc, Roskilde, Denmark). Before the test, the DMEM culture medium present was removed, and 450 μl of fresh DMEM with inhibitor were added to each hole in at least three different concentrations in order to determine the IC50 value. After preincubation (60 min, 37° C.), the reaction was started by the addition of 50 μl of DMEM containing 2.5 μl of a solution of the substrate 11-deoxycorticosterone (20 μM, containing 1.25 nCi of [4-^14C]11-deoxycorticosterone, in ethanol). The plate was then kept in the CO2 incubator at 37° C. and under 5% CO2. The V79 MZh11B1 cells were incubated for 120 min, the V79 MZh11B2 cells for 40 min. Controls not containing inhibitor were treated in the same manner. The enzyme reactions were stopped by extraction of the supernatant with 500 μl of EtOAc. The samples were centrifuged (10000×g, 2 min), and the solution was removed and evaporated. The residue was taken up in 10 μl of chloroform and analyzed by HPTLC (see below).
For V79 MZh11B2, the conversion followed according to equation 3: […]
(§3) The percentage inhibition which was caused by an inhibitor in the concentration employed in each case was calculated according to equation 2.
(§4) It was calculated by determining the percentage inhibition at least 3 different inhibitor concentrations, which must all lie in the linear range of the sigmoidal IC50 curve (log C/% inhibition). The calculation was carried out by linear regression. The values determined were only used if they formed a straight line at a probability r of >0.95.
(§5) The resuspended residue from example A) or B)—containing the radiolabeled steroids—was applied to an HPTLC plate (20×10 cm, silica gel 60F254) with a concentration zone (Merck, Darmstadt, Germany). The plate was developed twice using the mobile phase chloroform/methanol/water (300:20:1). Unlabeled […] and corticosterone were applied as a reference for the CYP11B1 reaction. For the CYP11B2 reaction, 11-deoxycorticosterone, corticosterone, 18-hydroxycorticosterone and aldosterone were used as a reference. The unlabeled references were detected at 260 nm. Subsequently, imaging plates (BAS MS2340, for ^14C samples, Raytest, Straubenhardt, Germany) were exposed for 48 h with the HPTLC plates. The imaging plates were scanned using the Phosphoimager system Fuji FLA 3000 (Raytest, Straubenhardt, Germany) and the steroids were quantified.

[2] = molecular target: T2, steroid 11-β-hydroxylase CYP11B1 (hCYP11B1) (Homo sapiens, UniProt P15538); experiment: Inhibition test in V79 MZh11B1 cells (test system B); type: cell-based; settings: for % (0.5 μM) hCYP11B1: Table 2, percentage inhibition, inhibitor concentration 0.5 μM; for IC50: Table 1, V79 MZh11B1 cells, read-out: IC50 V79 11B1 hCYP11B1
T2 construct: expressed in transfected cells; host or cells: V79 MZh11B1 (V79 Chinese hamster cells)
T2 sequence (P15538 25-503): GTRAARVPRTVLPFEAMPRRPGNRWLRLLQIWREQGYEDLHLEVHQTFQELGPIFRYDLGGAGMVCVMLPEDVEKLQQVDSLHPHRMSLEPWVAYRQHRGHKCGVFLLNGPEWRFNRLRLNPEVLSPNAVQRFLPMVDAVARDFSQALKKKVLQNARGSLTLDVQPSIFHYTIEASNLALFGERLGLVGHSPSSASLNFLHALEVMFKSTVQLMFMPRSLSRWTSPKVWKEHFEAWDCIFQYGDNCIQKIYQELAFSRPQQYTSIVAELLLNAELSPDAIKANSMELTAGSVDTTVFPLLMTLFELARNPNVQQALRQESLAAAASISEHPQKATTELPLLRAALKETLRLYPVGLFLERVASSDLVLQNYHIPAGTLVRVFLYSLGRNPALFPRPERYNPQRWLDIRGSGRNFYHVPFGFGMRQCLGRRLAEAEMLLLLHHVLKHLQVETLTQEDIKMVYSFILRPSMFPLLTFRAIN
Protocol: as §1, §2
In the case of V79 MZh11B1, conversion was calculated analogously to equation 1, wherein: […]
as §3, §4, §5

Compound	melting point [°C]	inhibition at 0.5 µM [1] [%]	% (0.5 μM) hCYP11B1 [2] [%]	IC50 [1] [nM]	IC50 [2] [nM]
O=C1CCc2cc(-n3ccnc3)cc3c2N1CC3 [Example 28, 8-Imidazol-1-yl-1,2,5,6-tetrahydro-pyrrolo[3,2,1-ij]quinolin-4-one]	124	87	24		
COc1cncc(-c2cc3c4c(c2)CCC(=O)N4CCC3)c1 [Example 19, 9-(5-Methoxypyridin-3-yl)-1,2,6,7-tetrahydro-5H-pyrido[3,2,1-ij]quinolin-3-one]	150	95	51		
S=C1CCc2cc(-c3cccnc3)ccc2N1 [Example 8, 6-Pyridin-3-yl-3,4-dihydro-1H-quinoline-2-thione]	267		49		
CCN1C(=O)CCc2cc(-c3cccnc3)ccc21 [Example 9, 1-Ethyl-6-pyridin-3-yl-3,4-dihydro-1H-quinolin-2-one]	91			21	5970
O=C1CSc2cc(-c3cccnc3)ccc2N1 [Example 14, 7-Pyridin-3-yl-4H-benzo[1,4]thiazin-3-one]	240		49		
COc1cncc(-c2ccc3c(c2)CCC(=O)N3C)c1 [Example 6, 6-(5-Methoxypyridin-3-yl)-1-methyl-3,4-dihydro-1H-quinolin-2-one]	159			0.2	87
O=C1CCc2cc(-c3cccnc3)ccc2N1 [Example 1, 6-Pyridin-3-yl-3,4-dihydro-1H-quinolin-2-one]	189			28	6750
CN1C(=O)CCc2cc(-c3cncc4ccccc34)ccc21 [Example 7, 6-Isoquinolin-4-yl-1-methyl-3,4-dihydro-1H-quinolin-2-one]	176		97		
O=C1CCc2cc(-c3cccnc3)cc(Cl)c2N1 [Example 12, 8-Chloro-6-pyridin-3-yl-3,4-dihydro-1H-quinolin-2-one]	178			3.8	1670
